Experiment [1] concerns the target T1, catalytic domain of phosphodiesterase 4B enzyme cloned from human brain (Homo sapiens, UniProt Q07343).
T1 construct: the catalytic domain of phosphodiesterase 4B enzyme; purchased Scottish Biomedical
The experiment in a line: PDE4 inhibition assay (PDELight). The class given is biochemical. The settings on record: for IC50: 5 uM cAMP, read-out: PDE 4 Inhibition (IC50 in μM). The procedure: In a 96-well plate, the catalytic domain of phosphodiesterase 4B enzyme (40 mU/well) cloned from human brain (Scottish Biomedical) was combined with 5 uM cAMP substrate (Sigma). […] Using a PDELight® kit (Cambrex), the amount of AMP produced in the reaction from the hydrolysis of cAMP was quantified using PDELight AMP Detection Reagent which converts the AMP directly to ATP. The assay uses luciferase, which catalyses the formation of light from the newly formed ATP and luciferin. […] IC50 calculations were plotted using a nonlinear regression curve fit.

Experiment [2] deals with T2, recombinant human phosphodiesterase 10A1 enzyme (Homo sapiens, UniProt Q9Y233).
T2 construct: purchased BPS Biosciences; host or cells: Baculovirus infected Sf9 cells
The experiment can be described thus: PDE10 inhibition assay (PDELight). Format: biochemical. The settings on record: 1 uM cAMP; read-out: PDE 10 Inhibition (IC50 in μM). The method, then: In a 96-well plate, recombinant human phosphodiesterase 10A1 enzyme (10 U/well) expressed in Baculovirus infected Sf9 cells (BPS Biosciences) was combined with 1 uM cAMP substrate (Sigma). […] Using a PDELight® kit (Cambrex), the amount of AMP produced in the reaction from the hydrolysis of cAMP was quantified using PDELight AMP Detection Reagent which converts the AMP directly to ATP. The assay uses luciferase, which catalyses the formation of light from the newly formed ATP and luciferin. The luminescence was read on a Victor Light 1420 luminometer. IC50 calculations were plotted using a nonlinear regression curve fit.

Experiment [3] concerns at least one of JNK 3 or JNK 2 and at least one of PDE 10 or PDE 4. The experiment can be described thus: Dual inhibition (phosphodiesterase and JNK). The class given is biochemical, human. The settings on record: IC50 JNK 3 or JNK 2 less than about 5.00 μM and PDE 10 or PDE 4 less than about 20.0 or 30.0 μM. The method, then:
In a 96-well plate, recombinant full length human JNK2 or JNK3 enzyme (40 ng) expressed in Sf21 cells (Upstate) was incubated with the substrate ATF2 (3 uM) for 1 hour in the presence of 10 uM ATP. The amount of ATP depletion by the JNK enzyme is measured in the presence or absence of test compounds (0-30 uM). The ATP levels were quantified using luciferase with luminescence read on a Victor Light 1420 luminometer. IC50 calculations were plotted using a nonlinear regression curve fit.
In a 96-well plate, the catalytic domain of phosphodiesterase 4B enzyme (40 mU/well) cloned from human brain (Scottish Biomedical) was combined with 5 uM cAMP substrate (Sigma). Test compounds (0-30 uM) or vehicle (0.5% DMSO) were added to the enzyme/substrate and incubated 1 hour. Using a PDELight® kit (Cambrex), the amount of AMP produced in the reaction from the hydrolysis of cAMP was quantified using PDELight AMP Detection Reagent which converts the AMP directly to ATP. The assay uses luciferase, which catalyses the formation of light from the newly formed ATP and luciferin. The luminescence was read on a Victor Light 1420 luminometer. IC50 calculations were plotted using a nonlinear regression curve fit.
In a 96-well plate, recombinant human phosphodiesterase 10A1 enzyme (10 U/well) expressed in Baculovirus infected Sf9 cells (BPS Biosciences) was combined with 1 uM cAMP substrate (Sigma). Test compounds (0-30 uM) or vehicle (0.5% DMSO) were added to the enzyme/substrate and incubated 1 hour. Using a PDELight® kit (Cambrex), the amount of AMP produced in the reaction from the hydrolysis of cAMP was quantified using PDELight AMP Detection Reagent which converts the AMP directly to ATP. The assay uses luciferase, which catalyses the formation of light from the newly formed ATP and luciferin. The luminescence was read on a Victor Light 1420 luminometer. IC50 calculations were plotted using a nonlinear regression curve fit.

The target in experiment [4] is T3, recombinant full length human JNK2 enzyme (Homo sapiens, UniProt P45984).
T3 construct: recombinant full length human JNK2 or JNK3 enzyme; purchased Upstate; host or cells: Sf21 cells
The experiment in a line: JNK 2 inhibition assay (ATP depletion, luciferase). The class given is biochemical. The method, then:
In a 96-well plate, recombinant full length human JNK2 or JNK3 enzyme (40 ng) expressed in Sf21 cells (Upstate) was incubated with the substrate ATF2 (3 uM) for 1 hour in the presence of 10 uM ATP. […] IC50 calculations were plotted using a nonlinear regression curve fit.

The target in experiment [5] is T4, recombinant full length human JNK3 enzyme (Homo sapiens, UniProt P53779).
T4 construct: recombinant full length human JNK2 or JNK3 enzyme; purchased Upstate; host or cells: Sf21 cells
The experiment in a line: JNK 3 inhibition assay (ATP depletion, luciferase). Format: biochemical. Particulars: for IC50: 10 uM ATP, ATF2 substrate; for JNK-3 inhibition (in words): see Table 2. The method, then: In a 96-well plate, recombinant full length human JNK2 or JNK3 enzyme (40 ng) expressed in Sf21 cells (Upstate) was incubated with the substrate ATF2 (3 uM) for 1 hour in the presence of 10 uM ATP. […] The ATP levels were quantified using luciferase with luminescence read on a Victor Light 1420 luminometer. IC50 calculations were plotted using a nonlinear regression curve fit.

Setting [6] is: 10 uM ATP, ATF2 substrate, read-out: JNK 2 Inhibition (IC50 in μM).
The mark [7] stands for this setting: read-out: IC50 value based upon a JNK 2 inhibition assay (range given).

Like-named read-outs stand apart in the source and are kept apart here.

T1 sequence (Q07343 330-659 limits assumed): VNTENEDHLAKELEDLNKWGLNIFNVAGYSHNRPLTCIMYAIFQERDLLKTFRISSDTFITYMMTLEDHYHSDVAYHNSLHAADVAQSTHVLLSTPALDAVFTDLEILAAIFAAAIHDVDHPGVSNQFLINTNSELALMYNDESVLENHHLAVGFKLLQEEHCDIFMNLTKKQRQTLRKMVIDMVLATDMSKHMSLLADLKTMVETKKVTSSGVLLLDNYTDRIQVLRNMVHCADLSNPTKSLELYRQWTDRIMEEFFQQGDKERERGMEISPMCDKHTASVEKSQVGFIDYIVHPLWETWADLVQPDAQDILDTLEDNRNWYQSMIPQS
T3 sequence (P45984 whole entry): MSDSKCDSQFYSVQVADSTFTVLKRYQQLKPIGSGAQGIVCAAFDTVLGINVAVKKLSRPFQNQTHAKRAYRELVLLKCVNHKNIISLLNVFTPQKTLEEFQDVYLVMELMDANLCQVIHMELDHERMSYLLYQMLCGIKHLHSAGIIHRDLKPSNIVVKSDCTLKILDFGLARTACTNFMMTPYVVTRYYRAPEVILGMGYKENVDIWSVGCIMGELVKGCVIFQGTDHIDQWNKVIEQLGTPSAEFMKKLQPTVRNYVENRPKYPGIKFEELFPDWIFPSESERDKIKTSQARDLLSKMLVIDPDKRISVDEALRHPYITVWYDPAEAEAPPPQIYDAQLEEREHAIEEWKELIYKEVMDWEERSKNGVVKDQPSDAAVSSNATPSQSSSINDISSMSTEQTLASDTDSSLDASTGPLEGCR
T4 sequence (P53779 whole entry): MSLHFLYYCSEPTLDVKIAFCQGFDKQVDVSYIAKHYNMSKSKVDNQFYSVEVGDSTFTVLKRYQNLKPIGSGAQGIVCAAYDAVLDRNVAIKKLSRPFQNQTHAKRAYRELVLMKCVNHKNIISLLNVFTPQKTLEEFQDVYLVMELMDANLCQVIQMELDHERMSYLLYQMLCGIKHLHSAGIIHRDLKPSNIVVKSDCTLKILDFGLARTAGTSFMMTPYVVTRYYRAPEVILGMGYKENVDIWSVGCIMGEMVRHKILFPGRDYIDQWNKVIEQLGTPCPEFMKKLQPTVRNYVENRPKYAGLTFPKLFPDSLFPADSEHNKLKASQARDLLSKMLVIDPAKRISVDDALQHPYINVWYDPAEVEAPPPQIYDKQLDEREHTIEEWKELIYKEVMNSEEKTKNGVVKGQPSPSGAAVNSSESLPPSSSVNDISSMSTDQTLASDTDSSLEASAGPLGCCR
T2 sequence (Q9Y233 1-779 isoform Q9Y233-1): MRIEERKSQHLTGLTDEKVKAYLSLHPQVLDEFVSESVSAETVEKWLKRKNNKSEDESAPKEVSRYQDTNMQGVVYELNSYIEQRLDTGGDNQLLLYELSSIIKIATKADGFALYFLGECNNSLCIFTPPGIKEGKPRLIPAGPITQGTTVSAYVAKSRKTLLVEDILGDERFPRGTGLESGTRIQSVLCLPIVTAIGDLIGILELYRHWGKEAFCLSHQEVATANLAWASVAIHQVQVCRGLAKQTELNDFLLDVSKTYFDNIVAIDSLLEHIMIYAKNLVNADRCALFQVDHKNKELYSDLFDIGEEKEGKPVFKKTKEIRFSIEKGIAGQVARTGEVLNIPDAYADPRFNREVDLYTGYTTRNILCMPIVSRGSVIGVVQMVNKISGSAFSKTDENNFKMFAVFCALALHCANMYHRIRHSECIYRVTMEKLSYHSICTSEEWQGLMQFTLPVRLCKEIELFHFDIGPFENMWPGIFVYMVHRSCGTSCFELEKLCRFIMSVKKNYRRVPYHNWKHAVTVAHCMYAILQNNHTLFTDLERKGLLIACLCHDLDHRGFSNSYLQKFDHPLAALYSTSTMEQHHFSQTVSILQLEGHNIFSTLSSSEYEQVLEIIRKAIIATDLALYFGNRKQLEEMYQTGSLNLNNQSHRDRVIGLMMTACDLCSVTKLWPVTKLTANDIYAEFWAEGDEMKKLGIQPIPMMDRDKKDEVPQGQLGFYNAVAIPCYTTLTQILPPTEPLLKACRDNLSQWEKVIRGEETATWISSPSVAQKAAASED

With `CC(C)CNc1nccc(-c2cnn3ccccc23)n1` [AV1167, N-isobutyl-4-(pyrazolo[1,5-a]pyridin-3-yl)pyrimidin-2-amine], the IC50 is 13 µM in experiment [1]; 37 µM in experiment [2]; 1.5 µM in experiment [4] (setting [6]); 0.01 to 2 µM in experiment [4] (setting [7]); 0.7 µM in experiment [5]. Also, the “dual inhibition (phosphodiesterase and JNK)” value (from here on “dual inhibition”) in experiment [3] was “effective dual inhibitors”. Moreover, in experiment [5], the “JNK-3 inhibition (in words)” value is recorded as “particularly effective”.
Take `CCCCc1nn2ccccc2c1-c1ccnc(NC(C)C)n1` [AV1174, 4-(2-butylpyrazolo[1,5-a]pyridin-3-yl)-N-isopropylpyrimidin-2-amine]: in experiment [1], the “PDE-4 inhibition (in words)” value is recorded as “particularly effective”. The IC50 in experiment [1] is 7.9 µM; in experiment [2], 31 µM; in experiment [4] (setting [6]) it was 1.2 µM; in experiment [4] (setting [7]), 0.01 to 2 µM; in experiment [5], 1.1 µM. In addition, the “dual inhibition” value in experiment [3] was “effective dual inhibitors”. Besides, in experiment [5], the “JNK-3 inhibition (in words)” value is recorded as “particularly effective”.
Take `COCc1nn2ccccc2c1-c1ccnc(NC(C)C)n1` [AV1175, N-isopropyl-4-(2-(methoxymethyl)pyrazolo[1,5-a]pyridin-3-yl)pyrimidin-2-amine]: the “PDE-4 inhibition (in words)” value in experiment [1] is recorded as “particularly effective”. Further, the 50% inhibitory concentration (IC50) in experiment [1] is 8.6 µM; in experiment [2], more than 100 µM; in experiment [4] (setting [6]), 4.5 µM; in experiment [5], 1.2 µM. Also, in experiment [3], the “dual inhibition” value is “effective dual inhibitors”. Further, the “JNK-3 inhibition (in words)” value in experiment [5] was “particularly effective”.
Turning to `CC(C)Nc1nccc(-c2c(-c3ccccc3)nn3ccccc23)n1` [AV1176, N-isopropyl-4-(2-phenylpyrazolo[1,5-a]pyridin-3-yl)pyrimidin-2-amine], in experiment [1], the “PDE-4 inhibition (in words)” value is on record as “particularly effective”. Moreover, the concentration for half-maximal inhibition (IC50) in experiment [1] was 3.8 µM; in experiment [2], more than 100 µM; in experiment [4] (setting [6]), 0.1 µM; in experiment [4] (setting [7]), 0.01 to 2 µM; in experiment [5], 0.1 µM. For the same compound, in experiment [3], the “dual inhibition” value was “effective dual inhibitors”. For the same compound, in experiment [5], the “JNK-3 inhibition (in words)” value is “particularly effective”.
For the compound `CC(C)Cc1nn2ccccc2c1-c1ccnc(NC(C)C)n1` [AV1177, 4-(2-isobutylpyrazolo[1,5-a]pyridin-3-yl)-N-isopropylpyrimidin-2-amine], the “PDE-4 inhibition (in words)” value in experiment [1] is reported as “particularly effective”. In addition, the IC50 is 6.4 µM in experiment [1], more than 100 µM in experiment [2], 3 µM in experiment [4] (setting [6]) and 1.8 µM in experiment [5]. Moreover, the “dual inhibition” value in experiment [3] is “effective dual inhibitors”. Further, the “JNK-3 inhibition (in words)” value in experiment [5] is given as “particularly effective”.
With `Cc1nn2ccccc2c1-c1ccnc(NC2CCCC2)n1` [AV1182, N-cyclopentyl-4-(2-methylpyrazolo[1,5-a]pyridin-3-yl)pyrimidin-2-amine], in experiment [1], the “PDE-4 inhibition (in words)” value is “particularly effective” and the IC50 was determined as 5.7 µM. The IC50 in experiment [2] was more than 100 µM. Also, the “dual inhibition” value in experiment [3] was “effective dual inhibitors”. In experiment [5], the IC50 is 0.9 µM and the “JNK-3 inhibition (in words)” value is “particularly effective”.

(Values after patent US20110039873A1, “SUBSTITUTED PYRAZOLO[1,5-a] PYRIDINE COMPOUNDS HAVING MULTI-TARGET ACTIVITY” (priority 2009, published 2011).)
